Experimental data as given in patent publication US10294207B2, “Pyrazole derivatives as TNIK, IKKϵ and TBK1 inhibitor and pharmaceutical composition comprising same” (GREEN CROSS CORPORATION, priority 2015, dated 2019).

Legend:
Type in all cases: biochemical
Details in all cases: luminometer
TNIK = biological target: T1, TNIK (Homo sapiens, UniProt Q9UKE5); assay: TNIK inhibition, ADP-Glo Kinase Assay
T1 construct: purchased Promega V4158
Method: Inhibition activities on TNIK, IKKε and TBK1 were evaluated using the compounds of Examples 1 to 254.
The inhibition activities on TNIK, IKKε and TBK1 were measured by a luminometer, TNIK/IKKε/TBK1 Kinase Enzyme System (Promega, Ca# V4158; Invitrogen, PR8031B, Promega, Ca# V3991) and ADP-Glo Kinase Assay using ADP-Glo™ Kinase Analysis Kit (Promega, Ca# V9101) and a kinase reaction buffer [40 mM Tris(pH 7.5), 20 mM MgCl2, 0.1 mg/mL BSA] in accordance with the manufacturer's protocol.

TBK1 = biological target: T2, TBK1 (Homo sapiens, UniProt Q9UHD2); assay: TBK1 inhibition, ADP-Glo Kinase Assay
T2 construct: purchased Promega V3991
T2 sequence (Q9UHD2 1-729): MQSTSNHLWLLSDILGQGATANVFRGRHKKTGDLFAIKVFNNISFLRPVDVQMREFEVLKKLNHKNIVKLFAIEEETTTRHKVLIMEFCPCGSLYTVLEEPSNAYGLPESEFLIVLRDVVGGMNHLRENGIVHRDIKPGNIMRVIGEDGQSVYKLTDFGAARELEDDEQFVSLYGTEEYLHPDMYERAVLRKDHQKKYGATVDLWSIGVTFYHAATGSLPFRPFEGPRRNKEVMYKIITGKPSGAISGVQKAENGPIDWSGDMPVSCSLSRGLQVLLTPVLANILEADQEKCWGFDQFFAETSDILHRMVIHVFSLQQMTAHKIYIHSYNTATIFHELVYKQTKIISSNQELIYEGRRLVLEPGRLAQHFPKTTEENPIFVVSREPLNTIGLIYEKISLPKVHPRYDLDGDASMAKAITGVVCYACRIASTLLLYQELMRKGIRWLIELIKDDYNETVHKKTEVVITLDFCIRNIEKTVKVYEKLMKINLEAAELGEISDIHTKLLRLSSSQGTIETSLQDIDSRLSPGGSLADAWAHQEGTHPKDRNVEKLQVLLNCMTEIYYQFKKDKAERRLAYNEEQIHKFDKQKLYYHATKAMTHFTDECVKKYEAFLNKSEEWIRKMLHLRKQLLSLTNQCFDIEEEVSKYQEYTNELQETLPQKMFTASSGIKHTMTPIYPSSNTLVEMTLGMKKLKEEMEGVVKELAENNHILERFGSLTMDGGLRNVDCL
Procedure, shortened: (§1)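 ADP-Glo luminescence reported ADP produced by each kinase, following the kit protocol. Reactions used commercial kinase enzyme systems in buffer of 40 mM Tris (pH 7.5), 20 mM MgCl2 and 0.1 mg/mL BSA.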

IKKε = biological target: T3, IKKε (Homo sapiens, UniProt Q14164); assay: IKKε inhibition, ADP-Glo Kinase Assay
T3 construct: purchased Invitrogen PR8031B
T3 sequence (Q14164 1-716): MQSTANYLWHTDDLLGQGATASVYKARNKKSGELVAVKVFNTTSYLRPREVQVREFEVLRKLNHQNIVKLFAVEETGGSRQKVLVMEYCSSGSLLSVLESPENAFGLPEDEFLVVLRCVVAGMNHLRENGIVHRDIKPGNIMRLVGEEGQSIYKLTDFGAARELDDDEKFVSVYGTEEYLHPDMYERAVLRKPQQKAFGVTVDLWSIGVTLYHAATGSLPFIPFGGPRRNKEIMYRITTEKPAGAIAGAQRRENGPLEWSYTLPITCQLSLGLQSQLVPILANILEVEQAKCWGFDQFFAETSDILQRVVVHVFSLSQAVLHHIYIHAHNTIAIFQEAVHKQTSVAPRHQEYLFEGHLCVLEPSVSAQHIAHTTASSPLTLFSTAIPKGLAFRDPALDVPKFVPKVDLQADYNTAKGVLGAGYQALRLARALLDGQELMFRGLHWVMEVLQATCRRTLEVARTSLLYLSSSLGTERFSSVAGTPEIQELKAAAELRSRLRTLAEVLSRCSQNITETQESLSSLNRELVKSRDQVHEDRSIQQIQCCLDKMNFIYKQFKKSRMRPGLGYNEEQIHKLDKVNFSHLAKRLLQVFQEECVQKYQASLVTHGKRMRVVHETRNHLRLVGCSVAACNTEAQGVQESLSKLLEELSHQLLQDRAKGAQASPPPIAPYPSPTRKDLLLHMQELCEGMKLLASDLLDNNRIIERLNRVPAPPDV
Procedure, shortened: as §1

T1 sequence (Q9UKE5 1-367 limits assumed): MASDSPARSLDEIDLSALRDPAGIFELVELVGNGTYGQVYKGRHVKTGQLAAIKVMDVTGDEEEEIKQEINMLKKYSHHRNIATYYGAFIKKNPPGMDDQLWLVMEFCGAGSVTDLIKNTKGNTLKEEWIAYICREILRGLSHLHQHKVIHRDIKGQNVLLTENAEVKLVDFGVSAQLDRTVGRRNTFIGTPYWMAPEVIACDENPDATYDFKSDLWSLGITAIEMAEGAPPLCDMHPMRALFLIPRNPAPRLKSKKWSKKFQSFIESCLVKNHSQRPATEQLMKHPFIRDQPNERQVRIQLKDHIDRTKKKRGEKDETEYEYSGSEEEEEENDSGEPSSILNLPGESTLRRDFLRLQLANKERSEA

Compound | IC50 (TNIK) [µM] | IC50 (TBK1) [µM] | IC50 (IKKε) [µM]
CCNC(=O)c1cc2[nH]nc(-c3ccccc3)c2s1 [Example 238, N-ethyl-3-phenyl-1H-thieno[3,2-c]pyrazole-5-carboxamide] | 3.47 |  | 
CCNC(=O)c1cc2[nH]nc(-c3ccc(N(C)C)cc3)c2s1 [Example 237, 3-(4-(dimethylamino)phenyl)-N-ethyl-1H-thieno[3,2-c]pyrazole-5-carboxamide] | 1.79 |  | 
C[C@H]1CN(c2ccc(C(=O)Nc3n[nH]c4ccc(C(=O)NCc5cccs5)cc34)cc2)CCN1 [Example 117, (S)-3-(4-(3-Methylpiperazin-1-yl)benzamido)-N-(thiophen-2-ylmethyl)-1H-indazole-5-carboxamide 2,2,2-trifluoroacetate] |  | 0.0033 | 0.071
CC(C)(NC(=O)c1ccc2[nH]nc(NC(=O)c3ccc(F)cc3)c2c1)c1ccccc1 [Example 20, 3-(4-Fluorobenzamido)-N-(2-phenylpropan-2-yl)-1H-indazole-5-carboxamide] |  | 0.31 | 0.35
CCC(NC(=O)c1ccc2[nH]nc(NC(=O)c3ccc(N4CCOCC4)cc3)c2c1)c1ccccc1 (stereo not drawn) [Example 188, 3-(4-Morpholinobenzamido)-N-(1-phenylpropyl)-1H-indazole-5-carboxamide] |  | 0.0032 | 0.017
CC(C)(C)OC(=O)N1CC=C(c2ccc(C(=O)Nc3n[nH]c4ccc(C(=O)NCc5cccs5)cc34)cc2)CC1 [Example 198, tert-Butyl 4-(4-((5-((thiophen-2-ylmethyl)carbamoyl)-1H-indazol-3-yl)carbamoyl)phenyl)-3,6-tetrahydropyridine-1(2H)-carboxylate] |  | 0.15 | 1.28
CN(C)CCNc1ccc(C(=O)Nc2n[nH]c3ccc(C(=O)NCc4cccs4)cc23)cc1 [Example 158, 3-(4-((2-(Dimethylamino)ethyl)amino)benzamido)-N-(thiophen-2-ylmethyl)-1H-indazole-5-carboxamide] |  | 0.0087 | 0.096
CC(=O)Nc1ccc(C(=O)Nc2n[nH]c3ccc(C(=O)NCc4cccs4)cc23)cc1 [Example 211, 3-(4-Acetamidobenzamido)-N-(thiophen-2-ylmethyl)-1H-indazole-5-carboxamide] |  | 0.0013 | 0.079
CC(NC(=O)c1ccc2[nH]nc(NC(=O)c3ccc(N4CCN(C)CC4)cc3)c2c1)c1ccccn1 (stereo not drawn) [Example 128, 3-(4-(4-Methylpiperazin-1-yl)benzamido)-N-(1-(pyridin-2-yl)ethyl)-1H-indazole-5-carboxamide] |  | 0.028 | 0.11
CN1CCN(c2ccc(C(=O)Nc3n[nH]c4ccc(C(=O)NC(C)(C)c5cccs5)cc34)cc2)CC1 [Example 136, 3-(4-(4-Methylpiperazin-1-yl)benzamido)-N-(2-(thiophen-2-yl)propan-2-yl)-1H-indazole-5-carboxamide] |  | 0.0057 | 0.024
CN1CCN(c2ccc(C(=O)Nc3n[nH]c4ccc(C(=O)NC5(c6ccccc6)CC5)cc34)cc2)CC1 [Example 68, 3-(4-(4-Methylpiperazin-1-yl)benzamido)-N-(1-phenylcyclopropyl)-1H-indazole-5-carboxamide] |  | 0.0006 | 0.0042
CN1CCN(c2ccc(C(=O)Nc3n[nH]c4ccc(C(=O)NC(c5cccs5)C(F)(F)F)cc34)cc2)CC1 (stereo not drawn) [Example 135, 3-(4-(4-Methylpiperazin-1-yl)benzamido)-N-(2,2,2-trifluoro-1-(thiophen-2-yl)ethyl)-1H-indazole-5-carboxamide] |  | 0.0085 | 0.038
CN1CCN(c2ccc(C(=O)Nc3n[nH]c4ccc(C(=O)NCc5ccco5)cc34)cc2)CC1 [Example 51, N-(Furan-2-ylmethyl)-3-(4-(4-methylpiperazin-1-yl)benzamido)-1H-indazole-5-carboxamide] |  | 0.0081 | 0.064
O=C(NCc1cccs1)c1ccc2[nH]nc(NC(=O)c3ccc(C4=CCNCC4)cc3)c2c1 [Example 199, 3-(4-(1,2,3,6-Tetrahydropyridin-4-yl)benzamido)-N-(thiophen-2-ylmethyl)-1H-indazole-5-carboxamide] |  | 0.0097 | 0.14
CN1CCN(c2ccc(C(=O)Nc3n[nH]c4ccc(C(=O)NC(c5cccnc5)C5CC5)cc34)cc2)CC1 (stereo not drawn) [Example 143, N-(Cyclopropyl(pyridin-3-yl)methyl)-3-(4-(4-methylpiperazin-1-yl)benzamido)-1H-indazole-5-carboxamide] |  | 0.071 | 0.12
Cc1cc(CNC(=O)c2ccc3[nH]nc(NC(=O)c4ccc(N5CCOCC5)cc4)c3c2)ccn1 [Example 69, N-((2-Methylpyridin-4-yl)methyl)-3-(4-morpholinobenzamido)-1H-indazole-5-carboxamide] |  | 0.38 | 2.72
CCCC(NC(=O)c1ccc2[nH]nc(NC(=O)c3ccc(N4CCOCC4)cc3)c2c1)c1cccs1 (stereo not drawn) [Example 58, 3-(4-Morpholinobenzamido)-N-(1-(thiophen-2-yl)butyl)-1H-indazole-5-carboxamide] |  | 0.039 | 0.13
O=C(NCc1cccs1)c1ccc2[nH]nc(NC(=O)c3ccc(NCCN4CCOCC4)cc3)c2c1 [Example 153, 3-(4-((2-morpholinoethyl)amino)benzamido)-N-(thiophen-2-ylmethyl)-1H-indazole-5-carboxamide] |  | 0.0037 | 0.037
CCC(NC(=O)c1ccc2[nH]nc(NC(=O)c3ccc(N4CCN(C)CC4)cc3)c2c1)c1nccs1 (stereo not drawn) [Example 84, 3-(4-(4-Methylpiperazin-1-yl)benzamido)-N-(1-(thiazol-2-yl)propyl)-1H-indazole-5-carboxamide] |  | 0.016 | 0.069
O=C(NCc1cccs1)c1ccc2[nH]nc(NC(=O)c3ccc(F)cc3F)c2c1 [Example 35, 3-(2,4-Difluorobenzamido)-N-(thiophen-2-ylmethyl)-1H-indazole-5-carboxamide] |  | 0.28 | 0.93
CC(NC(=O)c1ccc2[nH]nc(NC(=O)c3ccc(N4CCOCC4)cc3)c2c1)c1ccccn1 (stereo not drawn) [Example 127, 3-(4-Morpholinobenzamido)-N-(1-(pyridin-2-yl)ethyl)-1H-indazole-5-carboxamide] |  | 0.027 | 0.14
O=C(NCc1ccc(C(F)(F)F)cc1)c1ccc2[nH]nc(NC(=O)c3ccc(N4CCOCC4)cc3)c2c1 [Example 65, 3-(4-Morpholinobenzamido)-N-(4-(trifluoromethyl)benzyl)-1H-indazole-5-carboxamide] |  | 0.76 | 1.95
Cc1cc(C(=O)Nc2n[nH]c3ccc(C(=O)NCc4cccs4)cc23)ccc1N1CCOCC1 [Example 78, 3-(3-Methyl-4-morpholinobenzamido)-N-(thiophen-2-ylmethyl)-1H-indazole-5-carboxamide] |  | 0.037 | 0.2
CN1CCN(c2ccc(C(=O)Nc3n[nH]c4ccc(C(=O)NCc5ccc(C(F)(F)F)cc5)cc34)cc2)CC1 [Example 66, 3-(4-(4-Methylpiperazin-1-yl)benzamido)-N-(4-(trifluoromethyl)benzyl)-1H-indazole-5-carboxamide] |  | 0.98 | 3.19
CN1CCN(c2ccc(C(=O)Nc3n[nH]c4ccc(C(=O)NCc5ccccc5F)cc34)cc2)CC1 [Example 196, N-(2-Fluorobenzyl)-3-(4-(4-methylpiperazin-1-yl)benzamido)-1H-indazole-5-carboxamide] |  | 0.007 | 0.032
